# How the values were obtained:
# Test in all cases: combination Emax (second highest fraction inhibited in the dose matrix, 72 h); higher = more inhibition; extreme values may be limits of the assay
# NCI-H2369 (Mesothelioma) = test system: NCI-H2369 (Mesothelioma)
# Summary of the method: (§1)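 Bliss excess equals the observed combination effect minus the expected value EA + EB − EA·EB, where EA and EB are the effects of each agent alone. Combination Emax is the second-highest inhibition within the matrix. Inhibition was scaled from CellTiter-Glo 2.0 luminescence, with 0 set by vehicle wells and 1 by blank wells, after 72 hours of two-drug dosing of cells plated in 1536-well plates.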
# [1] = test system: KM-H2 (Hodgkin's Lymphoma)
# Summary of the method: as §1
# [2] = test system: HT-29 (Colorectal Carcinoma)
# Summary of the method: as §1
# [3] = test system: COR-L95 (Small Cell Lung Carcinoma)
# Summary of the method: as §1
# [4] = test system: SW1990 (Pancreatic Carcinoma)
# Summary of the method: as §1
# [5] = test system: IHH-4 (Thyroid Gland Carcinoma)
# Summary of the method: as §1
# [6] = test system: HPAC (Pancreatic Carcinoma)
# Summary of the method: as §1
# [7] = test system: NCI-H1781 (Lung Adenocarcinoma)
# Summary of the method: as §1
# [8] = test system: MDA-MB-157 (Breast Carcinoma)
# Summary of the method: as §1
# RH-1 (Ewing's Sarcoma) = test system: RH-1 (Ewing's Sarcoma)
# Summary of the method: as §1
# [9] = test system: TGBC24TKB (Biliary Tract Carcinoma)
# Summary of the method: as §1
# [10] = test system: COR-L23 (Non-Small Cell Lung Carcinoma)
# Summary of the method: as §1
# [11] = test system: CFPAC-1 (Pancreatic Carcinoma)
# Summary of the method: as §1
# [12] = test system: SW756 (Cervical Carcinoma)
# Summary of the method: as §1
# [13] = test system: SW1783 (Low Grade Glioma)
# Summary of the method: as §1
# [14] = test system: U-266 (Plasma Cell Myeloma)
# Summary of the method: as §1
# [15] = test system: SW780 (Bladder Carcinoma)
# Summary of the method: as §1
# [16] = test system: SNU-C5 (Colorectal Carcinoma)
# Summary of the method: as §1
# [17] = test system: OCI-AML2 (Acute Myeloid Leukemia)
# Summary of the method: as §1
# [18] = test system: NCI-H1694 (Small Cell Lung Carcinoma)
# Summary of the method: as §1
SMILES,combination Emax [1],combination Emax (NCI-H2369 (Mesothelioma)),combination Emax [2],combination Emax [3],combination Emax [4],combination Emax [5],combination Emax [6],combination Emax [7],combination Emax [8],combination Emax (RH-1 (Ewing's Sarcoma)),combination Emax [9],combination Emax [10],combination Emax [11],combination Emax [12],combination Emax [13],combination Emax [14],combination Emax [15],combination Emax [16],combination Emax [17],combination Emax [18]
"Cc1cc2ncnn2cc1Nc1ncc2c(n1)n(C1CCOCC1)c(=O)n2C [AZD7648] + O=C(c1cc(Cc2n[nH]c(=O)c3ccccc23)ccc1F)N1CCN(C(=O)C2CC2)CC1 [Olaparib] (first compound max 10 µM, 7x7, partner max 10 µM)",0.349,0.0731,0.0989,0.363,0.11,0.219,0.0971,0.413,0.0869,0.23,0.276,0.212,0.197,0.157,0.14,0.335,0.165,0.24,0.723,0.152
"COc1nnc2ccc(N3CCC(c4ccc(OCCN5CCN(C)C(=O)[C@H]5C)cc4)CC3)nn12 [AZD5153] + C[C@@H]1COCCN1C2=NC(=NC(=C2)C3(CC3)[S@](=N)(=O)C)C4=C5C=CNC5=NC=C4 [AZD6738] (first compound max 1 µM, 7x7, partner max 10 µM)",0.89,0.363,0.863,0.547,0.497,0.772,0.71,0.491,0.913,0.957,0.855,0.772,0.574,0.447,0.515,0.412,0.465,0.816,1,0.921
"COc1cccc2c1C(=O)c1c(O)c3c(c(O)c1C2=O)C[C@@](O)(C(=O)CO)C[C@@H]3O[C@H]1C[C@H](N)[C@H](O)[C@H](C)O1 [Doxorubicin] + Cc1cc2ncnn2cc1Nc1ncc2c(n1)n(C1CCOCC1)c(=O)n2C [AZD7648] (first compound max 1 µM, 7x7, partner max 10 µM)",0.791,0.883,0.657,0.865,0.303,0.951,0.633,0.932,0.805,1,0.318,0.432,0.586,0.514,0.481,0.612,0.235,0.724,1,0.921
"COc1cc2c(cc1OCCCCCOc1cc3c(cc1OC)C(=O)N1C=C(C)C[C@H]1C=N3)N=C[C@@H]1CC(C)=CN1C2=O [SG3199] + O=C(c1cc(Cc2n[nH]c(=O)c3ccccc23)ccc1F)N1CCN(C(=O)C2CC2)CC1 [Olaparib] (first compound max 0.001 µM, 7x7, partner max 10 µM)",0.264,0.0848,0.0781,0.431,0.125,0.193,0.0597,0.45,0.0754,0.189,0.126,0.221,0.175,0.149,0.0897,0.179,0.128,0.147,0.747,0.112
"NC1(C(=O)N[C@@H](CCO)c2ccc(Cl)cc2)CCN(c2ncnc3[nH]ccc23)CC1 [Capivasertib] + COc1nnc2ccc(N3CCC(c4ccc(OCCN5CCN(C)C(=O)[C@H]5C)cc4)CC3)nn12 [AZD5153] (first compound max 10 µM, 7x7, partner max 1 µM)",0.546,0.268,0.753,0.399,0.208,0.636,0.68,0.527,0.389,0.699,0.789,0.552,0.531,0.413,0.473,0.38,0.226,0.665,1,0.523

# Continued, in another order:
combination Emax [1],SMILES,combination Emax (NCI-H2369 (Mesothelioma)),combination Emax [2],combination Emax [3],combination Emax [4],combination Emax [5],combination Emax [6],combination Emax [7],combination Emax [8],combination Emax (RH-1 (Ewing's Sarcoma)),combination Emax [9],combination Emax [10],combination Emax [11],combination Emax [12],combination Emax [13],combination Emax [14],combination Emax [15],combination Emax [16],combination Emax [17],combination Emax [18]
0.299,"COc1nnc2ccc(N3CCC(c4ccc(OCCN5CCN(C)C(=O)[C@H]5C)cc4)CC3)nn12 [AZD5153] + Cn1cnc2c(F)c(Nc3ccc(Br)cc3Cl)c(C(=O)NOCCO)cc21 [Selumetinib] (first compound max 1 µM, 7x7, partner max 10 µM)",0.368,0.848,0.218,0.265,0.662,0.82,0.327,0.546,0.315,0.893,0.422,0.584,0.534,0.246,0.542,0.537,0.619,1,0.234
0.158,"Cc1cc2ncnn2cc1Nc1ncc2c(n1)n(C1CCOCC1)c(=O)n2C [AZD7648] + CN(C)CCCOc1ccc(-c2ccc3ncc4c(c3c2)n(C2CCOCC2)c(=O)n4C)cn1 [AZD0156] (first compound max 10 µM, 7x7, partner max 1 µM)",0.198,0.247,0.233,0.212,0.329,0.169,0.352,0.209,0.127,0.357,0.0702,0.235,0.205,0.277,0.226,0.18,0.337,0.367,0.165
0.974,"CC1(C)CCC(CN2CCN(c3ccc(C(=O)NS(=O)(=O)c4ccc(NCC5CCOCC5)c([N+](=O)[O-])c4)c(Oc4cnc5[nH]ccc5c4)c3)CC2)=C(c2ccc(Cl)cc2)C1 [Venetoclax] + C=CCn1c(=O)c2cnc(Nc3ccc(N4CCN(C)CC4)cc3)nc2n1-c1cccc(C(C)(C)O)n1 [AZD1775] (first compound max 1 µM, partner max 1 µM)",0.27,0.89,0.862,0.783,0.711,0.757,0.449,0.905,1,0.52,0.602,0.495,0.436,0.307,0.85,0.148,0.57,1,0.516
0.0312,"CN(CCO)CC[C@H](CSc1ccccc1)Nc1ccc(S(=O)(=O)NC(=O)c2ccc(N3CCC([C@@H](O)c4ccccc4-c4ccc(Cl)cc4)CC3)cc2)cc1S(=O)(=O)C(F)(F)F [AZD4320] + Cc1cc2ncnn2cc1Nc1ncc2c(n1)n(C1CCOCC1)c(=O)n2C [AZD7648] (first compound max 1 µM, 7x7, partner max 10 µM)",0.0705,0.149,1,0.0867,0.193,0.321,0.258,0.0975,0.438,0.682,0.0958,0.134,0.112,0.366,0.622,0.484,0.225,1,0.76
0.979,"CN(CCO)CC[C@H](CSc1ccccc1)Nc1ccc(S(=O)(=O)NC(=O)c2ccc(N3CCC([C@@H](O)c4ccccc4-c4ccc(Cl)cc4)CC3)cc2)cc1S(=O)(=O)C(F)(F)F [AZD4320] + C=CCn1c(=O)c2cnc(Nc3ccc(N4CCN(C)CC4)cc3)nc2n1-c1cccc(C(C)(C)O)n1 [AZD1775] (first compound max 1 µM, partner max 1 µM)",0.189,0.965,1,0.757,0.694,1,0.563,0.67,0.986,0.682,0.656,0.699,0.399,0.531,0.95,0.457,0.619,1,0.906
0.451,"COc1nnc2ccc(N3CCC(c4ccc(OCCN5CCN(C)C(=O)[C@H]5C)cc4)CC3)nn12 [AZD5153] + Cc1c2c(nn1C)CSCc1cc(n(C)n1)CSc1cc(c3ccccc3c1)OCCCc1c(C(=O)O)n(C)c3c-2c(Cl)ccc13 [AZD5991] (first compound max 1 µM, 7x7, partner max 1 µM)",0.337,0.716,0.371,0.109,0.544,0.628,0.435,0.993,0.937,0.848,0.312,0.419,0.367,0.336,0.899,0.365,0.56,1,0.992
0.962,"COc1cccc(OCCCN)c1-c1cc(Nc2cnc(C#N)cn2)n[nH]1 [Prexasertib] + C=CCn1c(=O)c2cnc(Nc3ccc(N4CCN(C)CC4)cc3)nc2n1-c1cccc(C(C)(C)O)n1 [AZD1775] (first compound max 1 µM, partner max 1 µM)",0.296,0.844,0.736,0.688,0.99,0.792,0.736,0.969,1,0.896,0.652,0.692,0.445,0.549,0.77,0.303,0.886,1,0.932
